Experimental data from US5238935A, “N-acyl-tetrahydroisoquinolines as inhibitors of acyl-coenzyme A: cholesterol acyl transferase” (Schering Corporation, priority 1992, dated 1993).

Columns and labels:
ACAT [1] = biological target: T1, ACAT (Rattus norvegicus, UniProt Q7TQM4); assay: ACAT assay (in vitro); assay type: biochemical; conditions: rat liver microsomes; for inhibition at 25 µM / inhibition at 10 µM: read-out: ACAT Inhibition Screen % Inhibition; for IC50: pH 7.4, 37° C., 10 μM acyl CoA, read-out: ACAT Inhibition Screen IC50
T1 construct: Rat liver microsomes are used as the source of ACAT; from tissue; host or cells: rat liver microsomes
T1 sequence (Q7TQM4 1-524): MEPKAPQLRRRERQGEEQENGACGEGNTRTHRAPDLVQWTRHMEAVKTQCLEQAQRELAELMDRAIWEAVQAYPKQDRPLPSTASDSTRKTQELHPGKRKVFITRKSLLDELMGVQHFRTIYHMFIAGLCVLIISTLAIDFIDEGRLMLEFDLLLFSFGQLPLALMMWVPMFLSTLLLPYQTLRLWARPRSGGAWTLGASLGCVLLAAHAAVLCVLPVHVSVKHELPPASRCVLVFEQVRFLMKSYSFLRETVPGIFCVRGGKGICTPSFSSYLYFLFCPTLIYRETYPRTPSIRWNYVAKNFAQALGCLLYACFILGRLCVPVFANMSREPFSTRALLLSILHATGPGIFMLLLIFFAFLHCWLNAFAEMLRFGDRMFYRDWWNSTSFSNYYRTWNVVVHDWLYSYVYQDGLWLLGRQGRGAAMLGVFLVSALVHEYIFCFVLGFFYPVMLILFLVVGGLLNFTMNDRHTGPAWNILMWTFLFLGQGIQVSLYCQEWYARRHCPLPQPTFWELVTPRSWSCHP
Description: The in vitro activity of compounds of formula I or Ia can be determined by the following procedure.
This assay measures the activity of ACAT by measuring the ACAT-mediated transfer of tritiated oleic acid from acyl-CoA to cholesterol to give labelled cholesterol oleate. Rat liver microsomes are used as the source of ACAT. Assays are performed in round bottom microtiterplates using a total incubation volume of 50μL. Each incubation well receives 10 μL assay buffer (0.5M KHPO4, 10 μM dithiothreitol, pH 7.4), 7.5 μL of 40 mg/mL BSA (Bovine Serum Albumin) and 12.5 μg of microsomal protein. The test compound (in sufficient amount to bring the final concentration to from 0.1 to 25 μM), reference compound, or vehicle control is added and the final volume brought to 47 μL. The microtiterplate is then floated on the surface of a 37° C. water bath for fifteen minutes. Incubations are started by the addition of 3 μL ^3 H-acyl CoA (1 μCi/well, final concentration of 10 μM acyl CoA). The plate is then returned to the water bath for 15 minutes. The incubations are then terminated by application of 15 μL from each incubation to individual lanes on a thin layer plate (Silica Gel GF 20×20 cm). Standards are applied to several lanes so that the cholesterol ester band can be identified. After drying, the plates are eluted with 90:10:1 petroleum ether:diethyl ether:acetic acid. The standards are visualized via iodine vapor, and the regions corresponding to cholesterol ester are scraped into 7 mL scintillation vials. 4 mL of scintillant are added to each vial, and the radioactivity quantified. Background count is determined by the boiled controls. Full activity is determined by activity in the presence of vehicle. The percent inhibition is calculated by subtracting the background from both control and test samples, and the test value is calculated as a percentage of the control. For IC50 determinations, the inhibition is plotted against drug doses on a log scale and the concentration at which 50% inhibiting is obtained is determined.

ACAT [2] = biological target: T1, ACAT; assay: ACAT assay (in vitro); assay type: biochemical; conditions: rat liver microsomes, read-out: ACAT Inhibition Screen % Inhibition

Row | Compound | inhibition at 25 µM (ACAT [1]) | IC50 (ACAT [1]) | also measured
1 | CCCCCCCC/C=C\CCCCCCCC(=O)N1CCc2cc(OC)c(OC)cc2C1c1ccccc1 (centres unmarked) [N-(6,7-dimethoxy-1-phenyl-1,2,3,4-tetrahydroisoquinoline)-9-Z-octadecenamid] |  |  | inhibition at 10 µM (ACAT [1]): 66%
2 | CCCCCCCC/C=C\CCCCCCCC(=O)N1CCc2ccccc2C1c1cc(Cl)ccc1NC (centres unmarked) [N-[1-(2-methylamino-5-chlorophenyl)-1,2,3,4-tetrahydroisoquinoline]-9-Z-octadecenamide] |  |  | inhibition at 10 µM (ACAT [1]): 10%
3 | CCCCCCCC/C=C\CCCCCCCC(=O)N1CCc2ccccc2C1Cc1ccccc1 (centres unmarked) [R3=C6H5CH2, R4=H, R5=H, R2a=H, R2b=H] | 81% |  | 
4 | CCCCCCCC/C=C\CCCCCCCC(=O)N1CCc2cc(O)c(O)cc2C1Cc1ccccc1 (centres unmarked) [R3=C6H5CH2, R4=H, R5=H, R2a=OH, R2b=OH, N-(1-benzyl-6,7-dihydroxy-1,2,3,4-tetrahydroisoquinoline)-9-Z-octadecenamide] | 73% |  | 
5 | CCCCCCCC/C=C\CCCCCCCC(=O)N1Cc2cc(OC)c(OC)cc2CC1c1ccccc1 (centres unmarked) [R3=H, R4=C6H5, R5=H, R2a=CH3O, R2b=CH3O, N-(6,7-dimethoxy-3-phenyl1,2,3,4-tetrahydroisoquinoline)-9-Z-octadecenamide] | 86% |  | 
6 | CCCCCCCC/C=C\CCCCCCCC(=O)N1Cc2cc(OC)c(OC)cc2C(c2ccccc2)C1 (centres unmarked) [R3=H, R4=H, R5=C6H5, R2a=CH3O, R2b=CH3O, N-(6,7-dimethoxy-4-phenyl-1,2,3,4-tetrahydroisoquinoline)-9-Z-octadecenamid] | 83% | 2.4 µM | 
7 | CCCCCCCC/C=C\CCCCCCCC(=O)N1CCc2cc(OC)c(OC)cc2C1 [R3=H, R4=H, R5=H, R2a=CH3O, R2b=CH3O] | 100% | 0.74 µM | 
8 | CCCCCCCC/C=C\CCCCCCCC(=O)N1CCc2ccccc2C1 [R3=H, R4=H, R5=H, R2a=H, R2b=H] |  | 12 µM | inhibition at 100 µM (ACAT [2]): 83%

Now from value to compound, other results behind:

Row | inhibition at 25 µM (ACAT [1]) | IC50 (ACAT [1]) | Compound | also measured
9 | 4% |  | CCCCCCCC/C=C\CCCCCCCC(=O)N1CCc2cc(C)c(OC)cc2C1CCc1ccc(Cl)cc1 (centres unmarked) | 
10 | 91% |  | CCCCCCCC/C=C\CCCCCCCC(=O)N1CCc2cc(OC)c(OC)cc2C1Cc1ccc(OC)c(OC)c1 (centres unmarked) | 
11 | 63% |  | CCCCCCCC/C=C\CCCCCCCC(=O)N1CCc2cc(OC)c(OC)cc2C1Cc1ccccc1 (centres unmarked) | 
12 |  | 8 µM | CCCCCCCC/C=C/CCCCCCCC(=O)N1CCc2cc(OC)c(OC)cc2C1c1ccccc1 (centres unmarked) | inhibition at 10 µM (ACAT [1]): 87%
13 | 67% |  | CCCCCCCC/C=C\CCCCCCCC(=O)N1Cc2cc(OC)c(OC)cc2CC1c1ccc(OC)c(OC)c1 (centres unmarked) [N-[6,7-dimethoxy-3-(3,4-dimethoxyphenyl)-1,2,3,4-tetrahydroisoquinoline]-9-Z-octadecenamide] | 
